According to patent US12662473B2, “Inhibitors for programmed cell necrosis and preparation method therefor and use thereof” (SHANGHAI INSTITUTE OF ORGANIC CHEMISTRY, CHINESE ACADEMY OF …, priority 2019, dated 2026):
Like-named read-outs stand apart in the source and are kept apart here.

Tests used:
FADD−/− Jurkat cells = test: TNF-induced programmed cell necrosis inhibition, Cell Titer-Glo viability; format: cell-based; settings: Homo sapiens, Jurkat
Excerpt: (§1) The adopted biological assay protocol was: the programmed necroptosis effect of compounds on TNF-induced in FADD (Fas-Associated Death Domain) deficient Jurkat cells and L929 cells.
(§2) In order to verify the inhibitory effect of the compounds of the present invention on programmed cell necrosis at the cellular level, cell types closely related to the RIP1 pathway, namely FADD deficient Jurkat cells (human peripheral blood leukemia T cell line) and L929 cells, were selected. Two different stimulation methods were used: tumor necrosis factor (TNFα) used alone, or TNFα used in combination with mitochondria-derived cysteine aspartate activator (SMAC). Cells viability was calculated by detecting chemiluminescence values, and the biological activity of the compound for inhibiting programmed cell necrosis can be obtained.
(§3) Methods: FADD deficient Jurkat cells: FADD deficient Jurkat cells (human peripheral blood leukemia T cell line) were cultured in vitro. After growing to the logarithmic growth phase, the cells were collected, centrifuged at 1000 rpm for 5 min, the supernatant was discarded, and the cell concentration was adjusted to 2.5×10^5/mL. Cells were seeded into 384-well plates, 40 μl per well. 5 μL of Smac (50 nM) diluted in cell culture medium and 5 μL of each compound were added to the corresponding wells. After pretreatment at 37° C. for 1 h, 5 μL of TNFα (50 ng/mL) diluted in cell culture medium was added to each well of the stimulation group, and 5 μL of the culture medium was added to the control group. The plate was cultured in a cell incubator (37° C., 5% CO2) for 14 h, and 15 μl of Cell Titer-Glo solution was added to each well, then incubated for 30 min at room temperature, and intracellular ATP level was measured by detecting luminescence. The unstimulated DMSO control wells were taken as 100% cell viability. L929 cells: The L929 cells (mouse fibroblasts) were cultured in vitro, digested and diluted to 6.25×10^4/ml, and the cells were seeded into 384-well plates, 40 μl per well. The plate was placed in a cell incubator (37° C., 5% CO2) for 12 hours. 5 μL of Smac (500 nM) diluted in cell culture medium and 5 μL of each compound were added to the corresponding wells. After pretreatment at 37° C. for 1 h, 5 μL of TNFα (500 ng/mL) diluted in cell culture medium was added to each well of the stimulation group, and 5 μL of the culture medium was added to the control group. After the plate was cultured for 14 h in a cell incubator (37° C., 5% CO2), 15 μl of Cell Titer-Glo solution was added to each well. The plate was incubated at room temperature for 30 min, and intracellular ATP level was measured by detecting luminescence. The unstimulated DMSO control wells were taken as 100% cell viability. EC50 values of the compounds were calculated using Prism Graphpad statistical software.
FADD deficient Jurkat cells: FADD deficient Jurkat cells (human peripheral blood leukemia T cell line) were cultured in vitro. After growing to the logarithmic growth phase, the cells were collected, centrifuged at 1000 rpm for 5 min, the supernatant was discarded, and the cell concentration was adjusted to 2.5×10^5/mL. Cells were seeded into 384-well plates, 40 μl per well. 5 μL of Smac (50 nM) diluted in cell culture medium and 5 μL of each compound were added to the corresponding wells. After pretreatment at 37° C. for 1 h, 5 μL of TNFα (50 ng/mL) diluted in cell culture medium was added to each well of the stimulation group, and 5 μL of the culture medium was added to the control group. After the plate was cultured in a cell incubator (37° C., 5% CO2) for 14 h, 15 μl of Cell Titer-Glo solution was added to each well. The mixture was incubated for 30 min at room temperature, and intracellular ATP level was measured by detecting luminescence. The unstimulated DMSO control wells were taken as 100% cell viability.

L929 cells = test: as above; format: cell-based, mouse; settings: Mus musculus, read-out: EC50 inhibitory activity on programmed cell necrosis
Excerpt: as §1, §2, §3
L929 cells: The L929 cells (mouse fibroblasts) were cultured in vitro, digested and diluted to 6.25×10^4/ml, and the cells were seeded into 384-well plates, 40 μl per well. The plate was placed in a cell incubator (37° C., 5% CO2) for 12 hours. 5 μL of Smac (500 nM) diluted in cell culture medium and 5 μL of each compound were added to the corresponding wells. After pretreatment at 37° C. for 1 h, 5 μL of TNFα (500 ng/mL) diluted in cell culture medium was added to each well of the stimulation group, and 5 μL of the culture medium was added to the control group. After the plate was cultured for 14 h in a cell incubator (37° C., 5% CO2), and 15 μl of Cell Titer-Glo solution was added to each well, then incubated at room temperature for 30 min, and intracellular ATP level was measured by detecting luminescence. The unstimulated DMSO control wells were taken as 100% cell viability.

[1] = 14 h, TNFa + SM164, read-out: EC50 inhibitory activity on programmed cell necrosis
[2] = TNFa, read-out: EC50 inhibitory activity on programmed cell necrosis
[3] = L929, 14 h, L929 cells (mouse), TNFa + SM164

Row | Compound | EC50 (FADD−/− Jurkat cells; [1]) | EC50 (FADD−/− Jurkat cells; [2]) | EC50 (L929 cells; [3]) | EC50 (L929 cells; L929, L929 cells (mouse), TNFa)
1 | CC(C)(Oc1ccc(Cl)cc1F)C(=O)N1CCC[C@H]1c1cc(F)cc(F)c1 [QY-6-60] | 707 nM | 17 nM | 402 nM | 130 nM
2 | CC(C)(Oc1ccc(Cl)cc1F)C(=O)N1N=CCC1c1ccc(Cl)cc1 (stereo not drawn) [QY-8-101] | 692 nM | 15 nM | 15 nM | 5.8 nM
3 | Cc1ccc([C@@H]2CCCN2C(=O)C(C)(C)Oc2ccc(Cl)cc2)cc1 (stereo in doubt) [QY-5-21] | 696 nM | 93 nM | 208 nM | 59.9 nM
4 | Cc1noc([C@@H]2CCCN2C(=O)C(C)(C)Oc2ccc(Cl)cc2Cl)n1 [QY-3-81] | 1960 nM | 326 nM | 2720 nM | 704 nM
5 | Cc1noc([C@@H]2CCCN2C(=O)C2(Oc3ccc(Cl)cc3)CC2)n1 [QY-3-35] | > 10000 nM | 10500 nM | > 10000 nM | 160000 nM
6 | Cc1ccc(C2CCCN2C(=O)C(C)(C)Oc2cccc(C#N)c2)cc1 (stereo not drawn) [QY-14-24] | 939 nM | 21.9 nM | 66 nM | 15.4 nM
7 | Cc1ccc(C2CCCN2C(=O)C(C)(C)Oc2ccc(C#CC(C)(C)O)cc2)cc1 (stereo not drawn) [QY-15-11] | > 10000 nM | > 10000 nM | > 10000 nM | 2840 nM
8 | Cc1noc([C@@H]2CCCN2C(=O)C(C)(C)Sc2ccc(Cl)cc2)n1 [QY-3-36] | 8360 nM | 983 nM | 9400 nM | 2250 nM
9 | CN(C)c1ccc(C2CCCN2C(=O)C(C)(C)Oc2ccc(Cl)cc2F)cc1 (stereo not drawn) [QY-5-4] | > 10000 nM | > 10000 nM | > 10000 nM | > 10000 nM
10 | [2H]C([2H])([2H])c1ccc(C2CCCN2C(=O)C(C)(C)Oc2ccc(Cl)cc2F)cc1 (stereo not drawn) [XHJ-3-22] | 1460 nM |  | 302 nM | 40 nM
11 | Cc1noc([C@@H]2CCCN2C(=O)C(C)(C)Oc2ccc(Cl)c(F)c2)n1 [QY-3-26] | 1280 nM | 111 nM | 1240 nM | 196 nM
12 | Cc1noc([C@@H]2CCCN2C(=O)C(C)(C)Oc2cc(Cl)c(Cl)cc2Cl)n1 [QY-4-1] | > 10000 nM | 10300 nM | > 10000 nM | 12700 nM
13 | COc1cc(Cl)ccc1OC(C)(C)C(=O)N1CCC[C@H]1c1nc(C)no1 [QY-3-95] | 1140 nM | 102 nM | 1000 nM | 135 nM
14 | COc1cc(OC(C)(C)C(=O)N2N=CCC2c2ccc(C)cc2)ccc1Cl (stereo not drawn) [QY-7-101] | 1100 nM | 630 nM | 10 nM | 11 nM
15 | CC(C)(Oc1ccc(C#N)cc1)C(=O)N1CCCC1c1ccc(Cl)cc1 (stereo not drawn) [QY-11-36] | 885 nM | 137 nM | 99.5 nM | 
16 | CCc1ccc(C2CCCN2C(=O)C(C)(C)Oc2ccc(Cl)cc2)cc1 (stereo not drawn) [QY-4-96] | 6930 nM | 1460 nM | 8130 nM | 2100 nM
17 | Cc1ccc(C2CCCN2C(=O)C(C)(C)Oc2ccc(Cl)c(C#N)c2)cc1 (stereo not drawn) [QY-14-60] | 1620 nM | 283 nM | 497 nM | 141 nM
